From ChEMBL document CHEMBL1129773, “Novel 1,2-diarylcyclobutenes: Selective and orally active cox-2 inhibitors” (Bioorg Med Chem Lett, 1996)

What was measured:
[1] = biological target: Prostaglandin G/H synthase 1 (Homo sapiens, UniProt P23219)
[2] = biological target: T1, Prostaglandin G/H synthase 2 (Homo sapiens, UniProt P35354); format: cell-based, CHO
T1 sequence (P35354 whole entry): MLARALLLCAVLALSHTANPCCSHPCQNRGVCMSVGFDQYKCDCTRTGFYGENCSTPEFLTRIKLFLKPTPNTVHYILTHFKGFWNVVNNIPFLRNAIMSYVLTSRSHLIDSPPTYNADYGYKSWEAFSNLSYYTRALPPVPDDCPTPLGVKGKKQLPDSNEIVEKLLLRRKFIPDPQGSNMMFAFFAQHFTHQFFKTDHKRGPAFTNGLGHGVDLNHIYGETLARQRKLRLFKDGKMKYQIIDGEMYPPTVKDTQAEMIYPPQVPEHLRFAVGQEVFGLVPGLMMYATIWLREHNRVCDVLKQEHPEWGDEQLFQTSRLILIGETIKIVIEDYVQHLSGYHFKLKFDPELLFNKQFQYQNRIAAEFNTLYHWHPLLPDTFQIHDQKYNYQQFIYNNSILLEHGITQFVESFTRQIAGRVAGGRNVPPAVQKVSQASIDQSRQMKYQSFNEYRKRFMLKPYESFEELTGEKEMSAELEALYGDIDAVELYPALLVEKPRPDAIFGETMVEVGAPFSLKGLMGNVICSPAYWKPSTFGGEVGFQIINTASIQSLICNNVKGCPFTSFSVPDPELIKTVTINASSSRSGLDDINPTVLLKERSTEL

Rattus norvegicus [3] = test: Compound was tested in vivo for efficacy in the rat paw edema assay upon oral administration.; format: functional
[4] = Compound was tested for plasma concentration in rats when administered at 20 mg/kg in 1% methocel at 1 hr; format: ADME, organism-based; parameters: dose 20 mg/kg; conditions: rat, read-out: Cmax
Rattus norvegicus [5] = species on record: Rattus norvegicus; test: animal or person; conditions: po, read-out: Inhibition
in vivo = conditions: rat, plasma, 20 mg/kg
Description: Compound was tested for plasma concentration in rats when administered at 20 mg/kg in 1% methocel at 2 hr

Sequence of Prostaglandin G/H synthase 1 (P23219 whole entry): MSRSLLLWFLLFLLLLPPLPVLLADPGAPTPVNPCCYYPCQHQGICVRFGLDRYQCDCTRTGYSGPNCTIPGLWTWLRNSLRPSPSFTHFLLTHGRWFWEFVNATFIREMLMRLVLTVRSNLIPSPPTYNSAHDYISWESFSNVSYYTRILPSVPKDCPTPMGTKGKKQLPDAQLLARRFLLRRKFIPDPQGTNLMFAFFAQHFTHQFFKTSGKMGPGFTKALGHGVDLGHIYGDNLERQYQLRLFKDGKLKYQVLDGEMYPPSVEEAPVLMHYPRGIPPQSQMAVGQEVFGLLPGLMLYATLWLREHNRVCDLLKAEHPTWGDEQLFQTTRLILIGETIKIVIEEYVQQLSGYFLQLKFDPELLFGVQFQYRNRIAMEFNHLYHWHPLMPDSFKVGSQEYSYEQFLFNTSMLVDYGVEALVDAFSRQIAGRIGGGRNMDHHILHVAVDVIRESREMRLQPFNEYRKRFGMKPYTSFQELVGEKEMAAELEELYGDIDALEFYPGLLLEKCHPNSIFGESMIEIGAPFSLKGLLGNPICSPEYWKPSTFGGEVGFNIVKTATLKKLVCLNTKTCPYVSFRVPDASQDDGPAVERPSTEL

| Structure (SMILES) | IC50 [1] [µM] | IC50 [2] [µM] | ED50 (Rattus norvegicus [3]) [mg/kg] | concentration at 1 h [4] [µM] | inhibition in vivo at 30 mg/kg (Rattus norvegicus [5]) [%] | concentration at 2 h (in vivo) [µM] |
| --- | --- | --- | --- | --- | --- | --- |
| CS(=O)(=O)c1ccc(C2=C(c3ccccc3)C(=O)C2)cc1 | 4.4 | 0.11 | – | – | – | – |
| CC1(C)C(c2ccc(S(C)(=O)=O)cc2)=C(c2ccccc2)C1O (configuration not stated) | 45 | 0.53 | – | – | – | – |
| CC1(C)C(c2ccc(S(C)(=O)=O)cc2)=C(c2ccccc2)/C1=N/O | 34 | 0.061 | 4.2 | 1.8 | – | – |
| CC1(C)C(=O)C(c2ccccc2)=C1c1ccc(S(C)(=O)=O)cc1 | – | – | 2.4 | 7.5 | – | – |
| CS(=O)(=O)c1ccc(C2=C(c3ccccc3)C(=O)C23CCCC3)cc1 | 0.5 | 0.012 | – | – | – | – |
| C=C1CC(c2ccc(S(C)(=O)=O)cc2)=C1c1ccccc1 | 0.54 | – | 5.5 | 1 | – | – |
| CC1(C)C(=O)C(c2ccc(F)cc2)=C1c1ccc(S(C)(=O)=O)cc1 | 0.37 | 0.005 | – | – | – | – |
| CS(=O)(=O)c1ccc(C2=C(c3ccc(F)cc3)CC3(CC3)C2)cc1 | 0.14 | – | – | – | 38 | – |
| C=C1C(c2ccccc2)=C(c2ccc(S(C)(=O)=O)cc2)C1(C)C | 0.12 | 0.0022 | – | – | – | – |
| CC1(C)C(=O)C(c2ccc(S(C)(=O)=O)cc2)=C1c1ccccc1 | 2 | – | 2.7 | 8.5 | – | – |
| CS(=O)(=O)c1ccc(C2=C(c3ccccc3)CC2)cc1 | – | > 5 | – | – | – | – |
| CS(=O)(=O)c1ccc(-c2cc(Br)sc2-c2ccc(F)cc2)cc1 [DUP-697] | – | – | 1.3 | – | – | 0.7 |
